Experimental data from patent US20120190707A1, “SELECTIVE INHIBITORS OF AKT AND METHODS OF USING SAME” (priority 2008, published 2012).
Values joined by “and” are separate entries in the source; they are usually repeats but may differ in a detail not shown here. Equal values may be shown once. “Also recorded” adds a separate entry of the source. Read-outs that look alike come from different tables or passages of the source.

Assays:
[1] = biological target: T1, Akt1 (Homo sapiens, UniProt P31749); assay: Akt1 inhibition, Z'-LYTE kit fluorescent-enzymatic assay; type: biochemical; details: for Ki: 10 μM compound 1, 20 μM compound 2, 50 μM compound 3, increasing ATP, Lineweaver-Burk
T1 sequence (P31749 whole entry): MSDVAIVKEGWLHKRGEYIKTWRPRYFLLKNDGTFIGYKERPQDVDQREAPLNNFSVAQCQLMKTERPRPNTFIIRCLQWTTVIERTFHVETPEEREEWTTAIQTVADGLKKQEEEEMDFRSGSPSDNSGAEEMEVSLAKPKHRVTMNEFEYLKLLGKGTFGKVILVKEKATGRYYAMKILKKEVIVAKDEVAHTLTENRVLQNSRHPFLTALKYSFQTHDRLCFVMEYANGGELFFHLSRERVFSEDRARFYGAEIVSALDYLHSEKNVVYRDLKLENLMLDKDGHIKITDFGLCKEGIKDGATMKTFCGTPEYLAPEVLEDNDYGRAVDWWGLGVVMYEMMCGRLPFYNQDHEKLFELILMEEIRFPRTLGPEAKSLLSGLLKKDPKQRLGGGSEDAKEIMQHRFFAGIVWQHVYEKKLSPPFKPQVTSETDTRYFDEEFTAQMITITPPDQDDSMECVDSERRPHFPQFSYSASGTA
Experimental: Here the top 4000 compounds out of 50000 docked compounds were selected using FlexX and Drugscore (BioSolvIT). The top 4000 docked structures were further evaluated and ranked according to Goldscore and Chemscore functions (CSCORE). A list of common 200 compounds was then selected among ranked top 700 compounds according to both scoring functions (FIG. 1B). […] The remaining 100 compounds were experimentally tested up to 30 μM against Akt1. The inhibitory activity was evaluated for the selected compounds by using Z'-LYTE™ kit assay provided by Invitrogen Corporation (19). […] Corning® 384-well low volume plates (20 μl) were used. The fluorescent-enzymatic assay has been performed following the protocol provided by Invitrogen Corporation, using a fluorescent plate reader (Victor2, Perkin-Elmer). […] C) Lineweaver-Burk Km and Km(app) evaluation for Akt1. Each measurement was performed in triplicate. […] The Ki and the Km(app) were calculated at fixed inhibitor concentrations, as reported in the text. All constant values were definitely evaluated by fitting the data to the Lineweaver-Burk plot; D) Akt1 inhibition assay using GSK-3 as a substrate. Comparison of compounds 1 and 2 (Table 1) with H89 at 10 μM. E) Dose response for compound 1. Akt (10 ng of recombinant enzyme) in 25 μl 1× kinase buffer (25 mM Tris, pH 7.5; 5 mM n-glycerol phosphate; 2 mM dithiothreitol; 0.1 mM Na3VO4; and 10 mM MgCl2), was mixed with 2.5 μl DMSO (1% stock) or MPA-D (100 μM in 1% DMSO). Samples were incubated on ice for 1.5 hours at which time 1 μg of GSK-3 fusion protein (Cell Signaling), which served as the substrate, was added followed by ATP (200 μM) to each reaction mixture. After the suspensions were incubated at 30° C. for 20 min, the reaction was terminated by the addition of 3×SDS sample buffer (187.5 mM Tris-HCl, pH 6.8; 6% SDS; 30% glycerol; 150 mM dithiothreitol; and 0.03% bromophenol blue). The samples were boiled for 5 min, and the proteins were separated on a 12% SDS polyacrylamide gel and subsequently transferred to a nitrocellulose membrane. Membranes were incubated with rabbit polyclonal anti-phospho-GSK-3α/β (Ser21/9) (Cell Signaling).
For these purposes, we initially determined the Km and the Vmax of the enzymatic reaction involving the peptide provided by the Z'-LYTE™ kit assay and Akt1 by varying the concentration of ATP. The above parameters appeared to be 7.9 μM and 0.0205 μmol min^−1 mg^−1, respectively. […] Because all our inhibitors affected the Km rather than the Vmax of the reaction (FIG. 2C), they can be truly considered ATP-competitive inhibitors of Akt1.

[2] = biological target: T1, Akt1; assay: Akt1 inhibition assay using GSK-3 as a substrate (immuno-blotting with anti-phospho-GSK-3α/β); type: biochemical
Experimental: Here the top 4000 compounds out of 50000 docked compounds were selected using FlexX and Drugscore (BioSolvIT). The top 4000 docked structures were further evaluated and ranked according to Goldscore and Chemscore functions (CSCORE). A list of common 200 compounds was then selected among ranked top 700 compounds according to both scoring functions (FIG. 1B). […] The remaining 100 compounds were experimentally tested up to 30 μM against Akt1. The inhibitory activity was evaluated for the selected compounds by using Z'-LYTE™ kit assay provided by Invitrogen Corporation (19). […] Corning® 384-well low volume plates (20 μl) were used. The fluorescent-enzymatic assay has been performed following the protocol provided by Invitrogen Corporation, using a fluorescent plate reader (Victor2, Perkin-Elmer). […] C) Lineweaver-Burk Km and Km(app) evaluation for Akt1. Each measurement was performed in triplicate. […] The Ki and the Km(app) were calculated at fixed inhibitor concentrations, as reported in the text. All constant values were definitely evaluated by fitting the data to the Lineweaver-Burk plot; D) Akt1 inhibition assay using GSK-3 as a substrate. Comparison of compounds 1 and 2 (Table 1) with H89 at 10 μM. E) Dose response for compound 1. […]

[3] = FIG. 2 legend, read-out: IC50 value
[4] = Table 2, derivatives of Compound 1, read-out: IC50

Q: How did the “inhibitory activity against Akt1 kinase (in words)” value [1] turn out when `CC1=C(C#N)c2nc(N)c(C#N)c(C)c2C1=Cc1ccc(-c2ccc(C(=O)O)cc2)o1` [Compound 4] was run?
A: appreciable inhibition in the micromolar range; also recorded: limited inhibitory activity

Q: What does the source list for `CC1=C(C#N)c2nc(N)c(C#N)c(C)c2/C1=C/c1ccc(-c2ccc(C(=O)O)c(Cl)c2)o1` [Compound 1]?
A: inhibition of GSK-3 phosphorylation [2]: low micromolar range; IC50 values (in words) [1]: low-micromolar range; Ki [1]: 1100 nM; IC50 [1, 3]: 2300 nM and 2600 nM; Hill slope ([1]; IC50 curve, FIG. 2A): 1.1; IC50 ([1]; Table 1, read-out: IC50): 2600 nM; IC50 [1, 4]: 2600 nM

Q: For `CC1=C(C#N)c2nc(N)c(C#N)c(C)c2C1=Cc1ccc(-c2cccc(C(=O)O)c2)o1` [Compound 5], which “inhibitory activity against Akt1 kinase (in words)” value [1] is on record?
A: appreciable inhibition in the micromolar range; also recorded: limited inhibitory activity

Q: And the IC50 [1, 4]?
A: 60200 nM

Q: How did the Ki [1] turn out when `O=C(O)c1cc(-c2ccc(C=C3C(=O)c4ccccc4C3=O)o2)ccc1O` [Compound 3] was run?
A: 20800 nM

Q: What about the IC50 [1, 3] of the same compound?
A: 25100 nM
